# Where a name gives a salt, the structure may show the parent alone.
# Key:
# Assay in all cases: MIC, Agar (Mueller Hinton) Dilution Method
# Assay type in all cases: cell-based
# [1] = system: A. calcoaceticus PCI-3; conditions: Acinetobacter calcoaceticus, PCI3, Gram Negative
# Description: (§1) The in vitro activity of the compounds of formula I of the present invention as measured by the Minimum Inhibitory Concentration (MIC) in micrograms/ml utilizing the Agar (Mueller Hinton) Dilution Method against a variety of Gram-positive and Gram-negative organisms, is set forth in Table 1.
# [2] = system: Cit. freundii EL-1408; conditions: Citrobacter freundii, EL1408; Cit. freundii EL-1408; Gram Negative; read-out: MIC
# Description: as §1
# [3] = system: Citrobacter freundii BS-16; conditions: Citrobacter freundii, BS16
# Description: as §1
# [4] = system: E. coli 4; conditions: Escherichia coli, 4
# Description: as §1
# [5] = system: E. coli 94; conditions: Escherichia coli, Gram Negative
# Description: as §1
# [6] = system: E. coli ATCC 25922; conditions: Escherichia coli, ATCC25922; E. coli ATCC 25922; Gram Negative; read-out: MIC
# Description: as §1
# [7] = system: E. coli B; conditions: Escherichia coli, Gram Negative
# Description: as §1
# [8] = system: E. coli HMS1; conditions: Escherichia coli, HMS1
# Description: as §1
# [9] = system: E. coli Leo HA2M4; conditions: Escherichia coli, LEOHA2M4
# Description: as §1
# [10] = system: E. coli Leo HA2; conditions: Escherichia coli, LEOHA2, Gram Negative
# Description: as §1
# [11] = system: E. coli TEM-1a; conditions: Escherichia coli, TEM1A
# Description: as §1
# [12] = system: Ent. hirae ATCC 8043; conditions: Enterococcus hirae, ATCC8043, Gram Positive and Others
# Description: as §1
# [13] = system: Enter. cloacae 4192-2; conditions: Enterobacter cloacae, 41922
# Description: as §1
# [14] = system: Enter. cloacae 4946; conditions: Enterobacter cloacae, Gram Negative
# Description: as §1
# [15] = system: Enter. cloacae 5699; conditions: Enterobacter cloacae, Gram Negative
# Description: as §1
# [16] = system: K. oxytoca 1082EN; conditions: Klebsiella oxytoca; K. oxytoca 1082EN; Gram Negative; read-out: MIC
# Description: as §1
# [17] = system: K. pneumoniae 369; conditions: Klebsiella pneumoniae; K. pneumoniae 369; Gram Negative; read-out: MIC
# Description: as §1
# [18] = system: Mycobacterium phlei 78; conditions: Mycolicibacterium phlei, 78
# Description: as §1
# [19] = system: Prot. mirabilis 190; conditions: Proteus mirabilis; Prot. mirabilis 190; Gram Negative; read-out: MIC
# Description: as §1
# [20] = system: Prot. mirabilis 2; conditions: Proteus mirabilis, 2
# Description: as §1
# [21] = system: Prot. mirabilis 503-1136; conditions: Proteus mirabilis, 5031136
# Description: as §1
# [22] = system: Prot. vulgaris 1028 BC; conditions: Proteus vulgaris, 1028BC
# Description: as §1
# [23] = system: Proteus vulgaris ATCC 6380; conditions: Proteus vulgaris, ATCC6380
# Description: as §1
# [24] = system: Ps. aeruginosa 1937E; conditions: Pseudomonas aeruginosa, Gram Negative
# Description: as §1
# [25] = system: Ps. aeruginosa 1973 E; conditions: Pseudomonas aeruginosa, Gram Negative
# Description: as §1
# [26] = system: Ps. aeruginosa 56; conditions: Pseudomonas aeruginosa, Gram Negative
# Description: as §1
# [27] = system: Ps. aeruginosa 8780; conditions: Pseudomonas aeruginosa, Gram Negative
# Description: as §1
# [28] = system: Ps. aeruginosa ATCC 27853; conditions: Pseudomonas aeruginosa, ATCC27853, Gram Negative
# Description: as §1
# [29] = system: Ps. aeruginosa K799/61; conditions: Pseudomonas aeruginosa; Ps. aeruginosa K799/61; Gram Negative; read-out: MIC
# Description: as §1
# [30] = system: Ps. aeruginosa K799/WT; conditions: Pseudomonas aeruginosa, Gram Negative
# Description: as §1
# [31] = system: Ser. marcescens MA; conditions: Serratia marcescens, Gram Negative
# Description: as §1
# [32] = system: Ser. sp. 101
# Description: as §1
# [33] = system: Serratia marcescens SM; conditions: Serratia marcescens SM; constitutive ß-lactamase producer; Gram Negative; read-out: MIC
# Description: as §1
# [34] = system: Staph. aureus 3647B; conditions: Staphylococcus aureus, 3647B
# Description: as §1
# [35] = system: Staph. aureus 404; conditions: Staphylococcus aureus, 404
# Description: as §1
# [36] = system: Staph. pyogenes 4; conditions: Staph. pyogenes 4; Gram Positive and Others; read-out: MIC
# Description: as §1
# [37] = system: Str. pyogenes 503-782; conditions: Streptococcus pyogenes, 503782; Str. pyogenes 503-782; Gram Positive and Others; read-out: MIC
# Description: as §1
# [38] = system: Streptococcus pneumoniae 6303; conditions: Streptococcus pneumoniae 6303; Gram Positive and Others; read-out: MIC
# Description: as §1
smiles,measurement,setting,value
"N#CCC(=O)N[C@@H]1C(=O)N2C(C(=O)O)=C(COC(=O)N[C@@H]3CCN(c4c(F)cc5c(=O)c(C(=O)O)cn(C6CC6)c5c4F)C3)CS[C@H]12 [Formula Ibb, [6R-[3(R^*), 6 alpha, 7 beta]]-3-[[[[[1-(3-Carboxy-1-cyclopropyl-6,8-difluoro-1,4-dihydro-4-oxo-7-quinolinyl-3-pyrrolidinyi]amino]carbonyl]oxy]methyL]-7-[(cyanoacetyl)amino]-8-oxo-5-thia-1-azabicyclo[4.2.0]oct-2-ene-2-carboxylic acid monosodium salt]",MIC,[1],0.5 µg/mL
same,MIC,[2],0.5 µg/mL
same,MIC,[3],0.0313 µg/mL
same,MIC,[4],0.125 µg/mL
same,MIC,[5],0.125 µg/mL
same,MIC,[6],0.0625 µg/mL
same,MIC,[7],0.0313 µg/mL
same,MIC,[8],0.0313 µg/mL
same,MIC,[9],0.0313 µg/mL
same,MIC,[10],≤ 0.0156 µg/mL
same,MIC,[11],0.125 µg/mL
same,MIC,[12],1 µg/mL
same,MIC,[13],0.0313 µg/mL
same,MIC,[14],0.125 µg/mL
same,MIC,[15],0.25 µg/mL
same,MIC,[16],0.0625 µg/mL
same,MIC,[17],0.5 µg/mL
same,MIC,[18],0.125 µg/mL
same,MIC,[19],0.0625 µg/mL
same,MIC,[20],0.125 µg/mL
same,MIC,[21],0.125 µg/mL
same,MIC,[22],0.0313 µg/mL
same,MIC,[23],0.125 µg/mL
same,MIC,[24],1 µg/mL
same,MIC,[25],1 µg/mL
same,MIC,[26],1 µg/mL
same,MIC,[27],2 µg/mL
same,MIC,[28],2 µg/mL
same,MIC,[29],0.25 µg/mL
same,MIC,[30],1 µg/mL
same,MIC,[31],8 µg/mL
same,MIC,[32],0.125 µg/mL
same,MIC,[33],0.25 µg/mL
same,MIC,[34],0.125 µg/mL
same,MIC,[35],0.125 µg/mL
same,MIC,[36],0.0625 µg/mL
same,MIC,[37],0.0625 µg/mL
same,MIC,[38],0.0625 µg/mL

# From patent EP0597303A2, “Cephalosporin derivatives” (priority 1992, dated 1994)
